From US12522597B2, “Methods and compositions for modulating splicing” (Skyhawk Therapeutics, Inc., priority 2019, dated 2026)
pEC50: −log10 of the molar value.

Legend:
mHTT protein = mHTT protein assay (2B7-MW1, Mesoscale Discovery); format: cell-based, human; details: GM04724 (CAG 70/20) Huntington's disease patient lymphoblast cells, 48 hours, 2B7-MW1 MSD; read-out: HTT Potency - Protein EC50 mHTT (average)
Summary of the method: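 mHTT levels were read with the 2B7-MW1 antibody pair (N17 and polyQ epitopes) on MSD after 48 h dosing, 10 μM–0.6 nM. Cells were GM04724 HD lymphoblasts (CAG 70/20). A replica plate was read by CTG for cell viability.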

[1] = test system: MDR1-MDCK cell monolayers; experiment: MDCK-MDR1 permeability assay (BBB penetration potential); format: in vitro ADME; details: dog, MDCK-MDR1, 120 min, 5 μM, pH 7.4
Description: (§1) Each determination is performed in duplicate. […] Analytical conditions are outlined below.

MDR1 = experiment: as above; format: in vitro ADME; details: dog; for efflux ratio at 120 min, 5 μM: MDCK-MDR1, pH 7.4, MDCK-MDR1: Efflux; for Papp A→B at 120 min, 5 μM: MDCK-MDR1, pH 7.4, MDCK-MDR1: Papp A-B; for Papp B→A at 120 min, 5 μM: MDCK-MDR1, pH 7.4, MDCK-MDR1: Papp B-A
Description: as §1

Row | SMILES | pEC50 (mHTT protein) | MDCK-MDR1: % Recov A-B [1] | MDCK-MDR1: % Recov B-A [1] | efflux ratio at 120 min, 5 μM (MDR1) | Papp A→B at 120 min, 5 μM (MDR1) | Papp B→A at 120 min, 5 μM (MDR1)
1 | N#Cc1ccc(-c2ccc(O[C@@H]3C[C@H]4CCC[C@H](N4)[C@@H]3F)nn2)c(O)c1 (single isomer, unassigned) [110-ENT1] | 5.00 to 6.30 | 101% | 100% | 13 | 5.37 ×10⁻⁶ cm/s | 68.2 ×10⁻⁶ cm/s
2 | N#Cc1ccc(-c2ccc(O[C@H]3C[C@@H]4CCC[C@@H](N4)[C@H]3F)nn2)c(O)c1 (single isomer, unassigned) [110-ENT2] | 5.00 to 6.30 | 95% | 97% | 8 | 7.44 ×10⁻⁶ cm/s | 56.9 ×10⁻⁶ cm/s
3 | N#Cc1ccc(-c2ccc(O[C@@H]3C[C@H]4CC[C@H](N4)[C@@H]3F)nn2)c(O)c1 (single isomer, unassigned) [111-ENT1] | 5.00 to 6.30 | 90% | 92% | 3 | 15.6 ×10⁻⁶ cm/s | 44.7 ×10⁻⁶ cm/s
4 | N#Cc1ccc(-c2ccc(O[C@H]3C[C@@H]4CC[C@@H](N4)[C@H]3F)nn2)c(O)c1 (single isomer, unassigned) [111-ENT2] | 5.00 to 6.30 | 92% | 96% | 4 | 14.4 ×10⁻⁶ cm/s | 58.7 ×10⁻⁶ cm/s
5 | Oc1cc(-n2ncc3ccccc32)ccc1-c1ccc(O[C@@H]2C[C@H]3CC[C@H](N3)[C@@H]2F)nn1 (single isomer, unassigned) [114-ENT1] | 5.00 to 6.30 | 22% | 47% | 3 | 4.74 ×10⁻⁶ cm/s | 13.5 ×10⁻⁶ cm/s
6 | Oc1cc(-n2ncc3ccccc32)ccc1-c1ccc(O[C@H]2C[C@@H]3CC[C@@H](N3)[C@H]2F)nn1 (single isomer, unassigned) [114-ENT2] | 5.00 to 6.30 | 18% | 42% | 4 | 3.86 ×10⁻⁶ cm/s | 15.1 ×10⁻⁶ cm/s
7 | Oc1cc(-c2nncs2)ccc1-c1ccc(O[C@@H]2C[C@H]3CCC[C@H](N3)[C@@H]2F)nn1 (single isomer, unassigned) [116-ENT1] | 7.30 to 7.80 | 88% | 91% | 8 | 7.76 ×10⁻⁶ cm/s | 59.2 ×10⁻⁶ cm/s
8 | Cn1cc(-c2cc(O)c(-c3ccc(O[C@H]4C[C@@H]5CCC[C@@H](N5)[C@H]4F)nn3)c(F)c2)cn1 (single isomer, unassigned) [118-ENT2] | 6.30 to 7.00 | 52% | 80% | 8 | 4.5 ×10⁻⁶ cm/s | 36.8 ×10⁻⁶ cm/s
9 | Cn1cc(-c2ccc(-c3ccc(O[C@H]4C[C@H]5CCC[C@H](N5)[C@H]4F)nn3)c(O)c2)cn1 (single isomer, unassigned) [122-ENT1] | 5.00 to 6.30 | 50% | 66% | 5 | 4.73 ×10⁻⁶ cm/s | 23.3 ×10⁻⁶ cm/s
10 | Cn1cc(-c2ccc(-c3ccc(O[C@@H]4C[C@@H]5CCC[C@@H](N5)[C@@H]4F)nn3)c(O)c2)cn1 (single isomer, unassigned) [122-ENT2] | 5.00 to 6.30 | 60% | 76% | 6 | 6.08 ×10⁻⁶ cm/s | 38.4 ×10⁻⁶ cm/s
11 | Oc1cc(-c2cn[nH]c2)ccc1-c1ccc(O[C@H]2C[C@@H]3COC[C@@H](N3)[C@H]2F)nn1 (single isomer, unassigned) [123-ENT2] | 6.30 to 7.00 | 87% | 93% | 10 | 7.03 ×10⁻⁶ cm/s | 69.8 ×10⁻⁶ cm/s
12 | Cn1cc(-c2ccc(-c3ccc(O[C@@H]4C[C@H]5COC[C@H](N5)[C@@H]4F)nn3)c(O)c2)cn1 (single isomer, unassigned) [124-ENT1] | 5.00 to 6.30 | 82% | 88% | 3 | 17.5 ×10⁻⁶ cm/s | 51.5 ×10⁻⁶ cm/s
13 | Cn1cc(-c2ccc(-c3ccc(O[C@H]4C[C@@H]5COC[C@@H](N5)[C@H]4F)nn3)c(O)c2)cn1 (single isomer, unassigned) [124-ENT2] | 5.00 to 6.30 | 86% | 89% | 3 | 16.9 ×10⁻⁶ cm/s | 43.5 ×10⁻⁶ cm/s
14 | Cn1ccc(=O)c2cc(-c3ccc(O[C@H]4C[C@]5(C)CCC[C@@](C)(N5)[C@H]4F)nn3)c(O)cc21 (single isomer, unassigned) [131-ENT1] | 5.00 to 6.30 | 95% | 99% | 70 | 0.71 ×10⁻⁶ cm/s | 49.5 ×10⁻⁶ cm/s
15 | Cn1ccc(=O)c2cc(-c3ccc(O[C@@H]4C[C@@]5(C)CCC[C@](C)(N5)[C@@H]4F)nn3)c(O)cc21 (single isomer, unassigned) [131-ENT2] | 5.00 to 6.30 | 91% | 96% | 56 | 0.79 ×10⁻⁶ cm/s | 44.6 ×10⁻⁶ cm/s
16 | Cn1ccc(=O)c2cc(O)c(-c3ccc(O[C@H]4C[C@]5(C)CCC[C@@](C)(N5)[C@H]4F)nn3)cc21 (single isomer, unassigned) [132-ENT1] | 6.30 to 7.00 | 90% | 95% | 142 | 0.1 ×10⁻⁶ cm/s | 14.7 ×10⁻⁶ cm/s
17 | CNC(=O)c1ccc2cc(-c3ccc(O[C@H]4C[C@@H]5CCC[C@@H](N5)[C@H]4F)nn3)c(O)cc2n1 (single isomer, unassigned) [136-ENT1] | 7.82 to 11.00 | 88% | 101% | 28 | 2.27 ×10⁻⁶ cm/s | 62.3 ×10⁻⁶ cm/s
18 | CNC(=O)c1ccc2cc(-c3ccc(O[C@H]4C[C@]5(C)CCC[C@@](C)(N5)[C@H]4F)nn3)c(O)cc2n1 (single isomer, unassigned) [137-ENT1] | 7.82 to 11.00 | 58% | 70% | 16 | 2.56 ×10⁻⁶ cm/s | 40.1 ×10⁻⁶ cm/s
19 | Cn1cnc(-c2ccc(-c3ccc(O[C@@H]4C[C@H]5CCC[C@H](N5)[C@@H]4F)nn3)c(O)c2)cc1=O (single isomer, unassigned) [138-ENT1] | 7.00 to 7.29 | 86% | 98% | 47 | 1.14 ×10⁻⁶ cm/s | 53.9 ×10⁻⁶ cm/s
20 | Cn1cnc(-c2ccc(-c3ccc(O[C@H]4C[C@@H]5CCC[C@@H](N5)[C@H]4F)nn3)c(O)c2)cc1=O (single isomer, unassigned) [138-ENT2] | 6.30 to 7.00 | 92% | 91% | 32 | 1.88 ×10⁻⁶ cm/s | 60.7 ×10⁻⁶ cm/s
21 | Cn1cnc(-c2ccc(-c3ccc(O[C@H]4C[C@]5(C)CCC[C@@](C)(N5)[C@H]4F)nn3)c(O)c2)cc1=O (single isomer, unassigned) [139-ENT2] | 7.82 to 11.00 | 88% | 87% | 15 | 1.97 ×10⁻⁶ cm/s | 28.7 ×10⁻⁶ cm/s
22 | Oc1cc(-c2nncs2)ccc1-c1ccc(O[C@H]2C[C@@H]3CC[C@@H](N3)[C@H]2F)nn1 (single isomer, unassigned) [141-ENT1] | 6.30 to 7.00 | 111% | 120% | 6 | 9.97 ×10⁻⁶ cm/s | 59.7 ×10⁻⁶ cm/s
23 | Oc1cc(-c2nnco2)c(F)cc1-c1ccc(O[C@@H]2C[C@H]3CC[C@H](N3)[C@@H]2F)nn1 (single isomer, unassigned) [142-ENT2] | 7.00 to 7.29 | 101% | 121% | 6 | 9.4 ×10⁻⁶ cm/s | 54.5 ×10⁻⁶ cm/s
24 | Oc1cc(-c2nnco2)c(F)cc1-c1ccc(O[C@H]2C[C@@H]3CCC[C@@H](N3)[C@H]2F)nn1 (single isomer, unassigned) [143-ENT1] | 7.00 to 7.29 | 81% | 93% | 8 | 6.56 ×10⁻⁶ cm/s | 55.7 ×10⁻⁶ cm/s
25 | Oc1cc(-c2nnco2)c(F)cc1-c1ccc(O[C@@H]2C[C@H]3CCC[C@H](N3)[C@@H]2F)nn1 (single isomer, unassigned) [143-ENT2] | 7.00 to 7.29 | 81% | 87% | 8 | 6.91 ×10⁻⁶ cm/s | 54.8 ×10⁻⁶ cm/s
26 | C[C@]12CCC[C@](C)(N1)[C@H](F)[C@H](Oc1ccc(-c3ccc(C#N)cc3O)nn1)C2 (single isomer, unassigned) [145-ENT1] | 5.00 to 6.30 | 82% | 87% | 4 | 9.39 ×10⁻⁶ cm/s | 42 ×10⁻⁶ cm/s
